Reference: patent publication US7342017B2, “1,2,5-Thiadiazol-3-yl-piperazine therapeutic agents useful for treating pain, depression and anxiety” (Euro-Celtique S.A., priority 2002, dated 2008)

What was measured:
Human VR1 Receptor [1] = molecular target: T1, Human VR1 Receptor (Homo sapiens, UniProt Q8NER1); test: Inhibition of capsaicin-induced activation of VR1; type: cell-based; conditions: mean ± spread, (n) = number of experiments, read-out: Inhibition of capsaicin-induced activation IC50 (nM) Mean IC50 ± SEC (n)
T1 sequence (Q8NER1 whole entry): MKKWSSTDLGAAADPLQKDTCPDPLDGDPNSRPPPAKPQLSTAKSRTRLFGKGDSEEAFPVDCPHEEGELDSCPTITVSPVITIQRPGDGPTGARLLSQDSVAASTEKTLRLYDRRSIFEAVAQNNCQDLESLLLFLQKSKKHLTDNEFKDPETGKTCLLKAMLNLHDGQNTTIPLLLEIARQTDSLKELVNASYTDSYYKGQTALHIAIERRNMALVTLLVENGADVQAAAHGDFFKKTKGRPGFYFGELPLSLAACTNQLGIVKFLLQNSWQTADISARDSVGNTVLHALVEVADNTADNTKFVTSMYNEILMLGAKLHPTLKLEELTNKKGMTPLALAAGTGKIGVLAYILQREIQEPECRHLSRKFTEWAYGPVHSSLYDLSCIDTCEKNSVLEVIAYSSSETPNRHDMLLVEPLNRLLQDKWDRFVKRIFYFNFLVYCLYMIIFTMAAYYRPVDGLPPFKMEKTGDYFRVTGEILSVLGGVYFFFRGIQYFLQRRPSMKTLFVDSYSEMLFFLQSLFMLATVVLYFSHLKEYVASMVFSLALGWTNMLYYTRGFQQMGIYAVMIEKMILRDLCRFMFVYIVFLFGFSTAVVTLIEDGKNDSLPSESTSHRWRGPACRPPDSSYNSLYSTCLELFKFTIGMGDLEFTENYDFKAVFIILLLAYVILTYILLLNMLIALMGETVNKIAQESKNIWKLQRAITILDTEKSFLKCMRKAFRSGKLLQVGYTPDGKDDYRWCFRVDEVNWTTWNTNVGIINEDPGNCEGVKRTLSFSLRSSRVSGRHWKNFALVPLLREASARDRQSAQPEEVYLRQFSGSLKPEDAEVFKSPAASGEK
From the text: (§1) Binding of the Thiadiazolylpiperazine Compounds to the Human VR1 Receptor
(§2) Methods for assaying compounds capable of inhibiting VR1 are well known to those skilled in the art, for example, those methods disclosed in U.S. Pat. No. 6,239,267 to Duckworth et al.; U.S. Pat. No. 6,406,908 to McIntyre et al.; or U.S. Pat. No. 6,335,180 to Julius et al.

Human VR1 Receptor [2] = molecular target: T1, Human VR1 Receptor; test: Inhibition of pH-induced activation of VR1; type: cell-based; conditions: mean ± spread, (n) = number of experiments, read-out: Inhibition of pH-induced activation IC50 (nM) Mean IC50 ± SEC (n)
From the text: as §1, §2

IC50 (Human VR1 Receptor [1]): 374 ± 233 nM | IC50 (Human VR1 Receptor [2]): 668 ± 265 nM
SMILES: CC(C)c1ccc(NC(=O)N2CCN(c3nsnc3Cl)CC2)cc1
